Some results are limits rather than exact numbers.

In assay [1] the target is T1, Aryl hydrocarbon receptor (Homo sapiens, UniProt P35869).
T1 sequence (P35869 whole entry): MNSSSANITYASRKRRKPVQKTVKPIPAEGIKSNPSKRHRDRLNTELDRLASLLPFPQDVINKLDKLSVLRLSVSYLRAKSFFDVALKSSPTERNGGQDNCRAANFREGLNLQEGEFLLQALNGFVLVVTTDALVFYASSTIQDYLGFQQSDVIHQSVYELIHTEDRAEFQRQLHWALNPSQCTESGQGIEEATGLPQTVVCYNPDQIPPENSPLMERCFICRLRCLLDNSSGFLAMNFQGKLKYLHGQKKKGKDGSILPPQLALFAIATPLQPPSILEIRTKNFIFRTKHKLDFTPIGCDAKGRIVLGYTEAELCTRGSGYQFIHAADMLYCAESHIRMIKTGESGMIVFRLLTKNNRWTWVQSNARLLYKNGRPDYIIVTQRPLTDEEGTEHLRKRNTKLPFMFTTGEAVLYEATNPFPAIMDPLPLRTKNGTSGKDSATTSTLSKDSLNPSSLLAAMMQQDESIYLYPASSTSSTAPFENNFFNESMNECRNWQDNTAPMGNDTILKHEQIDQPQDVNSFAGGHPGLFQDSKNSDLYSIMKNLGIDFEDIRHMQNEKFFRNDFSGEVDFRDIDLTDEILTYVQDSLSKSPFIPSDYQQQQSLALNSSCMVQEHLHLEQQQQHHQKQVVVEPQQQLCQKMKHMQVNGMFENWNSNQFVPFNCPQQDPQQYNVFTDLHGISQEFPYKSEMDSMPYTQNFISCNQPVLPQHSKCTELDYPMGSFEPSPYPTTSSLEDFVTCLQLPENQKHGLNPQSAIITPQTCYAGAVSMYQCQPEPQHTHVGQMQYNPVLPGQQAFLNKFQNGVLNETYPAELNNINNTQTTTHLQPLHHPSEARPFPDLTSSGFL
Kind of assay: Agonist activity at AHR in human HepG2 cells incubated for 4.5 hrs by Luciferase reporter assay. The format is cell-based. In general terms: A reporter such as luciferase makes a cellular process visible.

Assay [2] concerns the target T1, Aryl hydrocarbon receptor. Description: Agonist activity at AHR in human AZ-AHR stable HepG2 cells by Luciferase reporter assay.
Assay [3] concerns the target T1, Aryl hydrocarbon receptor. Description: Agonist activity at AHR in human MDA-MB-468 cells incubated for 24 hrs by Western blot analysis. The format is cell-based. (In general: In western blotting, separated proteins are transferred to a membrane and probed.)

Regarding `O=C(c1cccc(C(F)(F)F)n1)c1c[nH]c2ccccc12`, the EC50 (commonly the midpoint of the concentration-response curve) in assay [1] came to 2 nM.

Take `OC(c1ccncc1)(c1cc2ccccc2[nH]1)c1cc2ccccc2[nH]1`: the EC50 in assay [2] was 1600 nM.

As to `N#Cc1cccc(C(=O)c2c[nH]c3ccccc23)n1`, the EC50 in assay [1] came out at 2 nM.

In turn, `Brc1c(Br)c(Br)c2c([nH]c3c(Br)c(Br)c(Br)c(Br)c32)c1Br` had an EC50 in assay [3] of less than 1000 nM.

`Clc1c(Cl)c(Cl)c2c([nH]c3c(Cl)c(Cl)c(Cl)c(Cl)c32)c1Cl` displayed an EC50 in assay [3] of less than 1000 nM.

Take `CCOn1c(C(O)(c2ccncc2)c2cc3ccccc3[nH]2)cc2ccccc21` (stereo unspecified): it took 1600 nM to reach a half-maximal effect in assay [2] (EC50).
